In US11833158B2, “Compositions comprising omega-3 fatty acids, 17-HDHA and 18-HEPE and methods of using same” (Solutex NA LLC, priority 2015, dated 2023):

Tested on: PMA-stimulated THP-1 cells
Assay: Phagocytosis of opsonized zymosan bioparticles in PMA-stimulated THP-1 cells (fluorescence)
Assay type: cell-based, human
Details: oils diluted 1/10^3; Mar-1 at 1 nM; 15 min pretreatment, 60 min incubation with zymosan
Method: To determine the capacity of promoting a macrophage pro-resolution phenotype (i.e. M2) and therefore to foster the resolution of inflammation, several oils were tested in a human macrophage model adapted by López Vicario C from a method previously described (Titos et al., 2011) and compared with Mar-1 (the term Maresins is coined from Macrophage mediator in resolving inflammation), an established active compound in resolution of the inflammation.
THP-1 cells were cultured in a 96-well black plate at a density of 3.5×10^4 cells/well in 200 μl RPMI 1640 medium (10% FBS). […]
The compounds tested in this macrophage model were: • Maresin 1 (from Cayman Chemicals) • LM03-1 (a total amount of Omega-3 of about 629.9 mg/g (as FFA), DHA in an amount of about 342.1 mg/g (as FFA), EPA in an amount of about 187.6 mg/g (as FFA), 17-HDHA in an amount of about 60.8 mg/kg and 18-HEPE in an amount of about 87.5 mg/kg with 1.4 mg/g of a mixed natural tocopherols—3624 EE (about 33.0% EPA ethyl ester and about 22% DHA in ethyl ester form expressed as FFA) • Omacor (about 42.5% EPA ethyl ester and about 34.5% DHA in ethyl ester form expressed as FFA)
The concentration of Mar-1 used in the experiment was 1 nM, which has been determined the concentration with maximum activity in phagocytic activation for this compound in previous experiments using this model (data not shown). […]

In the case of `CC/C=C\C/C=C\C[C@H](O)/C=C/C=C/C=C/[C@H](O)C/C=C\CCC(=O)O` [Maresin-1, 7R,14S-dihydroxy-4Z,8E,10E,12E,16Z,19Z-docosahexaenoic acid], the “phagocytic activity relative to Mar-1 (100% assigned to Mar-1 1 nM)” value is reported as 100%.
